Consider 15 molecules from patent US20240376099A1, “COMPOUNDS AND COMPOSITIONS AS INHIBITORS OF ENDOSOMAL TOLL-LIKE RECEPTORS” (Novartis AG, priority 2016, published 2024).

Each structure is given as a SMILES string.

The assay has as its target T1, TLR9 (Homo sapiens, UniProt Q9NR96).
T1 construct: Fresh blood was collected from normal human donors; endogenous in cells; host or cells: human PBMCs from fresh donor blood
T1 sequence (Q9NR96 26-1032): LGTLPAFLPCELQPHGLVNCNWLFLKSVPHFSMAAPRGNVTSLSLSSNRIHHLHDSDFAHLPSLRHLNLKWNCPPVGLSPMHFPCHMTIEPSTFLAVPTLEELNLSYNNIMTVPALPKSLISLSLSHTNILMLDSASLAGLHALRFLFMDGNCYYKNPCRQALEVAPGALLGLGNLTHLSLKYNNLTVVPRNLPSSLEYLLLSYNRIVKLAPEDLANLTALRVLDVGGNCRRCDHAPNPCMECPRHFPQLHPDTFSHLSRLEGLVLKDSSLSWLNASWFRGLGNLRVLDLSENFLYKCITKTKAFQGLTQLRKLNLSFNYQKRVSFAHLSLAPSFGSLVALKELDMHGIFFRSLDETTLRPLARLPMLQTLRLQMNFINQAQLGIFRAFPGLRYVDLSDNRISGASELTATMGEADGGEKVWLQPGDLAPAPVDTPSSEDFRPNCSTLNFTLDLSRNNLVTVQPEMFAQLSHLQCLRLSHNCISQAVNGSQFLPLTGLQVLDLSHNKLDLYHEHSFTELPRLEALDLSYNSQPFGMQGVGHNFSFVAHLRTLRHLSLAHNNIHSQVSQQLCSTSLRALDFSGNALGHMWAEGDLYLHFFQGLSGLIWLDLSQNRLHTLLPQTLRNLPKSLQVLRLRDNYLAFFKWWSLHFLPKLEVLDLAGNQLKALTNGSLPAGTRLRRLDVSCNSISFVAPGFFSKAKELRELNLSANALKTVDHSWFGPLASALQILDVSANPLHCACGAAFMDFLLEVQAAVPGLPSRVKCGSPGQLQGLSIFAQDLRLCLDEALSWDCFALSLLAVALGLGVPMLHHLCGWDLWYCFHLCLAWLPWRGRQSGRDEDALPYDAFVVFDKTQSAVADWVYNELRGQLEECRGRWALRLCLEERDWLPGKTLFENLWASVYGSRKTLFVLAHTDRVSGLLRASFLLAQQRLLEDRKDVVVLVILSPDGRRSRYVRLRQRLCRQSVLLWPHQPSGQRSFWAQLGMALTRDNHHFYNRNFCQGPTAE
As to the kind of experiment: huPBMC TLR9 Antagonist IFNα Assay. In kind it is cell-based. The note with it: human PBMCs stimulated with ODN2216 0.3 μM, 14-16 hrs; IFNα2b AlphaLISA read-out. Here is the method: Compounds were generally serially diluted (1/3) in DMSO and plated on sterile 384 well tissue culture plates and stored until ready for use. Each ten-point dilution was typically plated in triplicate in parallel rows.
Fresh blood was collected from normal human donors underwritten informed consent in heparinized syringes on the morning of the assay. The blood was diluted in RPMI-1640 medium and the white blood cells were separated from red blood cells by centrifugation (800 g 15′ 0 acceleration, 0 brake) on a Ficoll cushion. Peripheral blood mononuclear cells (PBMCs) were separated from platelets by a series of low-speed centrifugations (1000RPM 10′) in PBS+5% HI—FBS and 1 mM EDTA. Purified PBMCs were re-suspended in assay medium (RPMI-1640 w Glutamax (Invitrogen) supplemented with 5% HI—FBS, 10 mM HEPES, 50 uM β-mercaptoethanol, and 100 mG/L penicillin/streptomycin cocktail). Viable PBMCs were counted on a hemacytometer and kept on ice until ready for plating.
A 4× concentration (4 ug/ml or 40 ug/ml for TLR8 or TLR7 assays, respectively) of the TLR7/8 agonist ssRNA40 (IDT) was complexed with 10% DOTAP (Roche) in assay medium for 30 min prior to addition to the PBMC suspension (5 million cells/ml). After addition, the final concentration of ssRNA40 in the TLR7/8 stimulated PBMC suspension was 1 μg/ml for TLR8 assay, and 10 μg/mL for the TLR7 assay. The final DOTAP concentration was 2.5%. Diluted PBMCs (5 million cells/ml) were treated with 4×TLR9 agonist ODN2216 (Invivogen). Final concentration of ODN2216 in TLR9 stimulated PBMC suspension was 0.3 μM.
Agonist stimulated PBMCs were plated on the compound treated 384 well plates at 150,000 cells/well. Un-stimulated PBMCs were plated as controls on each plate. Plating volume was 40 μL per well. DMSO concentration in each well was 0.25%.
A separate plate, without compounds, with titrations of ssRNA40 and ODN2216 was included in every assay to measure agonist response of each donor's PBMC prep. Assay plates were placed in a tissue culture incubator (37° C., 5% CO2) for 14-16 hrs. After this incubation, the plates were centrifuged and stored at −20° C. until they were assayed.
IL-6 TR-FRET Assay for TLR8 activity: • 1) Cisbio Human IL-6 kit, 20,000 tests (62TNFPEC), and GNF High-Base TC 384 well plates (cat #789163G) were used; • 2) the Anti-TIL-6 Cryptate conjugate and the Anti-IL-6 XL665 conjugate were diluted 1:20 in Reconstitution Buffer; • 3) a 1:1 mixture of 3 μl/well Anti-IL-6 Cryptate conjugate and 3 μl/well Anti-IL-6 XL665 conjugate was prepared; • 4) 6 μl/well HTRF dilution mastermix was added to 6 μl of transferred supernatant samples in proxiplates; • 5) The plates were incubated for 3 hrs at rt in the dark; and • 6) the levels of IL-6 production was measured using an Envision plate reader (665 nm (emmission)/590 nm (excitation)) with HTRF settings and ratiometric read-out: (XL665 emission/Eu Cryptate emission)×10,000. IFNα2b AlphaLISA Assay for TLR7 or TLR9 activity After thawing the assay plates, 6 μL of supernatant samples were transferred to a low-volume AlphaPlate 384SW (Perkin-Elmer). The concentration of IFNα in supernatants was measured using the IFNα2b AlphaLISA Assay (Perkin-Elmer: AL297F). 3 μL of IFNα acceptor beads/biotinylated antibody solution was added first, using laboratory automation. After an hour incubation, […] of streptavidin […] bead solution was added. The plates containing this mixture were incubated in the dark for an hour and read on an appropriate plate reader at reading parameters set by the manufacturer. (Envision, EnSpire: Perkin-Elmer).
For `Cc1nc(N2CCc3c(c(C)nn3CC34CCC(NC(=O)CCN(C)C)(CC3)CC4)C2)c2c(n1)c(C)nn2C` [compound 24, 3-(dimethyalmino)-N-(4-((3-methyl-5-(1,3,5-trimethyl-1H-pyrazolo[4,3-d]pyrimidin-7-yl)-4,5,6,7-tetrahydro-1H-pyrazolo[4,3-c]pyridin-1-yl)methyl)bicyclo[2.2.2]octan-1-yl)propanamide], the concentration for half-maximal inhibition (IC50) was greater than 7380 nM.

For `Cc1nc(N2CCc3c(c(C)nn3CC34CCC(N5CCCCC5)(CC3)CC4)C2)c2c(n1)c(C)nn2C` [compound 38, 1,3,5-trimethyl-7-(3-methyl-1-((4-(piperidin-1-yl)bicyclo[2.2.2]octan-1-yl)methyl)-6,7-dihydro-1H-pyrazolo[4,3-c]pyridin-5(4H)-yl)-1H-pyrazolo[4,3-d]pyrimidine], the IC50 is greater than 10000 nM.

Turning to `Cn1ncc2c(N3CCc4nn(CC56CCC(N)(CC5)CC6)cc4C3)nc(N)nc21` [compound 12, 4-(2-((4-aminobicyclo[2.2.2]octan-1-yl)methyl)-6,7-dihydro-2H-pyrazolo[4,3-c]pyridin-5(4H)-yl)-1-methyl-1H-pyrazolo[3,4-d]pyrimidin-6-amine], the IC50 was greater than 4960 nM.

Take `Cc1cc(N2CCc3c(c(C)nn3CC34CCC(N)(CC3)C4)C2)c2cnn(C)c2n1` [compound 44, 4-((5-(1,6-dimethyl-1H-pyrazolo[3,4-b]pyridin-4-yl)-3-methyl-4,5,6,7-tetrahydro-1H-pyrazolo[4,3-c]pyridin-1-yl)methyl)bicyclo[2.2.1]heptan-1-amine]: the IC50 was 1210 nM.

Take `Cc1cc(N2CCc3c(c(C)nn3CC34CCC(NC(=O)CN5CCCC5)(CC3)CC4)C2)c2cnn(C)c2n1` [compound 100, N-(4-((5-(1,6-dimethyl-1H-pyrazolo[3,4-b]pyridin-4-yl)-3-methyl-4,5,6,7-tetrahydro-1H-pyrazolo[4,3-c]pyridin-1-yl)methyl)bicyclo[2.2.2]octan-1-yl)-2-(pyrrolidin-1-yl)acetamide]: the IC50 was found to be 1360 nM.

Turning to `Cc1cc(N2CCc3c(c(C)nn3CC34CCC(N)(CC3)CC4)C2)c2ccncc2n1` [Compound No. 3, 4-((3-methyl-5-(2-methyl-1,7-naphthyridin-4-yl)-4,5,6,7-tetrahydro-1H-pyrazolo[4,3-c]pyridin-1-yl)methyl)bicyclo[2.2.2]octan-1-amine], the IC50 was found to be 1930 nM.

Turning to `Cc1cc(N2CCc3c(c(C)nn3CC34CCC(N5CCO[C@H](C)C5)(CC3)CC4)C2)c2cnn(C)c2n1` [compound 107, (R)-4-(4-((5-(1,6-dimethyl-1H-pyrazolo[3,4-b]pyridin-4-yl)-3-methyl-4,5,6,7-tetrahydro-1H-pyrazolo[4,3-c]pyridin-1-yl)methyl)bicyclo[2.2.2]octan-1-yl)-2-methylmorpholine], the IC50 is 1710 nM.

In the case of `Cc1cc(N2CCc3c(c(C)nn3CC34CCC(N5CCO[C@@H](C)C5)(CC3)CC4)C2)c2cnn(C)c2n1` [compound 109, (S)-4-(4-((5-(1,6-dimethyl-1H-pyrazolo[3,4-b]pyridin-4-yl)-3-methyl-4,5,6,7-tetrahydro-1H-pyrazolo[4,3-c]pyridin-1-yl)methyl)bicyclo[2.2.2]octan-1-yl)-2-methylmorpholine], the IC50 was 515 nM.

`Cc1cc(N2CCc3c(c(C)nn3CC34CCC(N5CC6(COC6)C5)(CC3)CC4)C2)c2cnn(C)c2n1` [compound 116, 6-(4-((5-(1,6-dimethyl-1H-pyrazolo[3,4-b]pyridin-4-yl)-3-methyl-4,5,6,7-tetrahydro-1H-pyrazolo[4,3-c]pyridin-1-yl)methyl)bicyclo[2.2.2]octan-1-yl)-2-oxa-6-azaspiro[3.3]heptane]: the IC50 is 1570 nM.

As to `Cc1nn(CC23CCC(N)(CC2)CC3)c2c1CN(c1ccnc3[nH]ncc13)CC2` [compound 41, 4-((3-methyl-5-(1H-pyrazolo[3,4-b]pyridin-4-yl)-4,5,6,7-tetrahydro-1H-pyrazolo[4,3-c]pyridin-1-yl)methyl)bicyclo[2.2.2]octan-1-amine], the IC50 came to 817 nM.

As for `[2H]C([2H])([2H])n1ncc2c(N3CCc4c(c(C)nn4CC45CCC(N)(CC4)CC5)C3)cc(C)nc21` [Compound No. 140, 4-((3-methyl-5-(6-methyl-1-(methyl-d3)-1H-pyrazolo[3,4-b]pyridin-4-yl)-4,5,6,7-tetrahydro-1H-pyrazolo[4,3-c]pyridin-1-yl)methyl)bicyclo[2.2.2]octan-1-amine], the IC50 was 1800 nM.

Regarding `Cc1cc(N2CCc3c(c(C)nn3CC34CCC(NCC(=O)N5CCCCC5)(CC3)CC4)C2)c2cnn(C)c2n1` [compound 99, 2-((4-((5-(1,6-dimethyl-1H-pyrazolo[3,4-b]pyridin-4-yl)-3-methyl-4,5,6,7-tetrahydro-1H-pyrazolo[4,3-c]pyridin-1-yl)methyl)bicyclo[2.2.2]octan-1-yl)amino)-1-(piperidin-1-yl)ethanone], the IC50 is 2840 nM.

On to `Cc1nc(N2CCc3c(c(C)nn3CC34CCC(N5CCCCC5)(CC3)CC4)C2)c2cnn(C)c2n1` [compound 39, 1,6-dimethyl-4-(3-methyl-1-((4-(piperidin-1-yl)bicyclo[2.2.2]octan-1-yl)methyl)-6,7-dihydro-1H-pyrazolo[4,3-c]pyridin-5(4H)-yl)-1H-pyrazolo[3,4-c]pyrimidine], for which the IC50 was greater than 10000 nM.

With `Cc1nc(N2CCc3c(c(C)nn3CC34CCC(N5CCCC5)(CC3)CC4)C2)c2cnn(C)c2n1` [compound 16, 1,6-dimethyl-4-(3-methyl-1-((4-(pyrrolidin-1-yl)bicyclo[2.2.2]octan-1-yl)methyl)-6,7-dihydro-1H-pyrazolo[4,3-c]pyridin-5(4H)-yl)-1H-pyrazolo[3,4-d]pyrimidine], the IC50 was greater than 10000 nM.

Take `Cc1cc(N2CCc3c(c(C)nn3CC34CCC(NC(=O)CO)(CC3)CC4)C2)c2cnn(C)c2n1` [Compound No. 135, N-(4-((5-(1,6-dimethyl-1H-pyrazolo[3,4-b]pyridin-4-yl)-3-methyl-4,5,6,7-tetrahydro-1H-pyrazolo[4,3-c]pyridin-1-yl)methyl)bicyclo[2.2.2]octan-1-yl)-2-hydroxyacetamide]: the IC50 was greater than 10000 nM.
